The test system of data set [1] is rat primary cortical neurons. In words: Neuroprotective activity, rat primary cortical neurons cultured in serum-containing or serum-free medium. Format: cell-based. As for the experimental part:
Primary cortical neurons are prepared from 18-day-old embryos of Sprague-Dawley rats as described (Liu and Schubert J. Neurochem. 69, 2285-2293 (1997) and J. Neurochem. 71, 2322-2329 (1998)). Briefly, the cerebral cortex is dissected out under an anatomical microscope and is freed of meninges and blood vessels. The cortex is cut into small pieces and is then dissociated by trypsin digestion and passed through a pipette tip. Dissociated neurons are suspended in various media and plated on polylysine-coated 35 mm tissue culture dishes (1×10^6 cells/dish). Several different culture conditions were used. Invention compounds were added to cell culture dishes. Cell survival was measure 2-7 days after compound administration.
The following serum-containing medium was used: minimal essential medium (Sigma) containing 30 mM glucose, 2 mM glutamine, 1 mM pyruvate, penicillin (100 U/ml), streptomycin (100 μg/ml), and 10% fetal calf serum. At a plating density of 1×10^6 cells/dish, most neurons die after one week of culture in this medium. If plated at a density of 2×10^6 cells/dish, then most neurons survive. Glia proliferate in this medium regardless of the initial cell density. Therefore the cell density-dependent neuronal survival in this system is most likely dependent on the neurotrophic factors secreted by the neurons, not by the glia. The results are the same when glial proliferation is inhibited by cytosine arabinoside.
A serum-free medium containing DMEM/F-12 plus N2 supplements (Invitrogen). When plated at a density of 1×10^6 cells/dish, almost all neurons die within three days. The cell death mechanisms in this culture medium are most likely to be oxidative stress and trophic factor deficiency.
A number of compounds according to the present invention were synthesized (using standard synthetic techniques) to explore the structure-activity relationships. The structures of exemplary invention compounds tested are provided herein. The structure-activity relationships of various compounds according to the present invention with rat primary cortical neurons cultured in serum-containing or serum-free medium are set forth in Table 1.

A further data set has as its system JNK. Put plainly: JNK phosphorylation caused by glutamate in cells. In kind it is cell-based. As to conditions: HT22 cells and primary cortical neurons. From the text: (§1) A panel of 14 protein kinases was screened against compound 11-001. […] The phosphorylation of the other tested kinases was not altered.
Another data set addresses JNK-1 (Homo sapiens, UniProt P45983). In words: Protein kinase panel screen: JNK-1. In kind it is biochemical.
Excerpt: as §1

A further data set deals with p38. In words: p38 phosphorylation caused by glutamate in cells. Particulars: HT22 cells and primary cortical neurons. In kind it is cell-based.
Excerpt: as §1

Data set [2] in a line: Plasma concentration after a single oral dose in mice. Format: in vivo, BALB/c mice. As to conditions: for Plasma 11-001 concentration: 400 mg/kg single oral dose. The method, then:
The pharmacokinetic properties of compound 11-001 (see FIG. 14) after a single oral dose were studied in 10-week old female BALB/c mice. Compound 11-001 was emulsified in 2.5% carboxymethyl cellulose at a concentration of 20 mg/ml and administered by gavage at a dosage of 400 mg/kg body weight (administered volume was 20 ml/kg body weight). The mice were then sacrificed at various intervals after administration (0, 1 hr, 2 hr, 4 hr, and 6 hr). Plasma was obtained from blood (mixed with K3EDTA to prevent coagulation) by centrifugation at 4,300 g for 10 min, extracted twice with ethyl acetate/propanol (9:1, v/v). The extracts were centrifuged at 5,000 g for 10 min to form aqueous/organic layers. The organic layer containing compound 11-001 was centrifuged at 20,000 g for 10 min to sediment particles. The extraction recovery from plasma was approximately 90%. Thirty μl thereof were analyzed by HPLC equipped with a C18 reversed phase column and compound 11-001 was detected at 330 nm. The elution solvent system was 50% acetonitrile, 50% water and 1 g/L trifluoroacetic acid with a flow rate of 1 ml/min.

A further data set addresses JNK-2 (Homo sapiens, UniProt P45984). In words: Protein kinase panel screen: JNK-2. In kind it is biochemical.
Excerpt: as §1

Data set [3] has as its system HT22 cells and primary cortical neurons. Put plainly: Cell death caused by glutamate in HT22 cells and primary cortical neurons. In kind it is cell-based.
Data set [4] in a line: Brain content after a single oral dose in mice. Format: in vivo, BALB/c mice. As to conditions: for Brain 11-001 content: 400 mg/kg single oral dose. As for the experimental part:
To study the distribution of compound 11-001 in brain at various time intervals (0, 1 hr, 2 hr, 4 hr, and 6 hr) after gavage (400 mg/kg), the mice were anesthetized with cloral hydrate and perfused through the heart with phosphate buffered saline (PBS) to remove blood in the brain. The mice were then decapitated, the brains removed, and quickly frozen and stored at −80° C. before further analysis. To measure the level of compound 11-001 in the brain, weighed brain pieces were homogenized by sonication in 3 volumes of PBS. The homogenates were then extracted and measured by HPLC as described above.

The next data set relates to HT22 cells. In words: HT22 cell survival after glutamate in the CREB phosphorylation experiment. In kind it is cell-based. As to conditions: 1 μM compound; all cells died in its absence. The method, then:
CREB phosphorylation in response to oxidative stress was evaluated in the presence of invention compounds. Glutamate was added to HT22 cells in the presence or absence of compound 11-001 (at 1 μM). […] Furthermore, all of the HT22 cells died in the absence of compound 11-001, and over 90% lived in the presence of compound 11-001.

For the next data set, the target named is JNK-3 (Homo sapiens, UniProt P53779). Put plainly: Protein kinase panel screen: JNK-3. In kind it is biochemical.
Excerpt: as §1

The structures appear in SMILES notation.

The values below come from US7531669B2, “Methods for treating neural disorders and conditions, and compounds useful therefor” (The Salk Institute for Biological Studies, priority 2003, dated 2009).

Sequence of JNK-3 (P53779 whole entry, species assumed): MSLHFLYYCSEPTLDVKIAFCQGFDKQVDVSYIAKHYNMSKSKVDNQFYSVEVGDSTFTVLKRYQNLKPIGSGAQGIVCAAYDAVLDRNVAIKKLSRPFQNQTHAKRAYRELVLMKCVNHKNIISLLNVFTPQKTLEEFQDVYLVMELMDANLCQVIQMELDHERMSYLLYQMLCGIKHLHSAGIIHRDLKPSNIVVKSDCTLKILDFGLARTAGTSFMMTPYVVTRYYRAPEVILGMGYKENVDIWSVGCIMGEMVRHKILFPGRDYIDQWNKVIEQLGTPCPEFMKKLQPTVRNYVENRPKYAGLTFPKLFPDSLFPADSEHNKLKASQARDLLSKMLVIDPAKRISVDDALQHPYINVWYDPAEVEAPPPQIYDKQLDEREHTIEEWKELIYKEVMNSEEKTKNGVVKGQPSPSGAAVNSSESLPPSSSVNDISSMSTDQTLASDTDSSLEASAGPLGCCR
Sequence of JNK-1 (P45983 whole entry, species assumed): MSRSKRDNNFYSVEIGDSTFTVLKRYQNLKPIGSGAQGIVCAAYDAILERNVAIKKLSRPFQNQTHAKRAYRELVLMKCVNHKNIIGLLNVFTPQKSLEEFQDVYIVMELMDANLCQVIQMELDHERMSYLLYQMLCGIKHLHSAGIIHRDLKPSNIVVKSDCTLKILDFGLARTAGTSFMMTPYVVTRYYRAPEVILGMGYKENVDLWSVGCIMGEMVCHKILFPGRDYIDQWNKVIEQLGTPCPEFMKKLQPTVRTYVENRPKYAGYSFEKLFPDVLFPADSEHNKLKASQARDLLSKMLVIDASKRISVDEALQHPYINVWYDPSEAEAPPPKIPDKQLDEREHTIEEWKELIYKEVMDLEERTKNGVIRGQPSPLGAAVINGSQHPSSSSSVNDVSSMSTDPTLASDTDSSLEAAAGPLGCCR
Sequence of JNK-2 (P45984 whole entry, species assumed): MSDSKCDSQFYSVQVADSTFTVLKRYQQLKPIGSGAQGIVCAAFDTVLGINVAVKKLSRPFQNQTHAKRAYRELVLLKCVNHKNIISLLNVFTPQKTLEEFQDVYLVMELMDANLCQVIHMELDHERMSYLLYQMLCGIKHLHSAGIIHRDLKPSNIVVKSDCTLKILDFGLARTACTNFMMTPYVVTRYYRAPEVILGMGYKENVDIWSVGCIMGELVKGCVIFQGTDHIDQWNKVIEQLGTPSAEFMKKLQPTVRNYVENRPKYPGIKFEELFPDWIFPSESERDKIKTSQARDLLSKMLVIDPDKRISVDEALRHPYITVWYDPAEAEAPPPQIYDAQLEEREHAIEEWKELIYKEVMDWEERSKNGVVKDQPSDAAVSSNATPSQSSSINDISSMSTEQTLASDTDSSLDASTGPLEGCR

In the case of `COc1cccc(/C=C/c2cc(/C=C/c3cccc(OC)c3)n(-c3ccccc3)n2)c1` [Compound 22-024], the “Neuroprotective activity at 1 μM” value in [1] was found to be 0.
Regarding `COc1cc(/C=C/c2cc(/C=C/c3ccc(O)c(OC)c3)n(-c3ccccc3)n2)ccc1O` [Compound 11-001], the “Block of JNK phosphorylation caused by glutamate” value in the data set on JNK is reported as “about 30%”. Also, the “Inhibition of kinase in panel of 14 protein kinases” value at JNK-1 is “None of the other enzymes that were assayed, including JNK-1 or JNK-2, were affected”; on JNK-2, “None of the other enzymes that were assayed, including JNK-1 or JNK-2, were affected”; on JNK-3 it was “partially inhibited”. Further, the “Block of p38 phosphorylation caused by glutamate” value with p38 is recorded as “about 30%”. For the same compound, the “Plasma 11-001 concentration” value in [2] (0 hr after gavage) was 0 µg/mL; in data set [2] (1 hr after gavage), 1.84 µg/mL; in data set [2] (2 hr after gavage) it was 2.30 µg/mL; in data set [2] (4 hr after gavage), 1.25 µg/mL; in [2] (6 hr after gavage) it was 0.67 µg/mL. Moreover, the “Time of maximum plasma concentration” value in [2] (400 mg/kg by gavage) is on record as “around 2 hr”. Moreover, in data set [3], the “Effect on cell death” value is listed as “inhibited cell death”. Moreover, the “Brain 11-001 content” value in [4] (0 hr after gavage) was 0 μg/g brain; in data set [4] (1 hr after gavage), 2.62 μg/g brain; in data set [4] (2 hr after gavage) it was 1.28 μg/g brain; in data set [4] (4 hr after gavage) it was 0.89 μg/g brain; in data set [4] (6 hr after gavage), 0.95 μg/g brain. Besides, the “Time of maximum brain concentration” value in [4] (400 mg/kg by gavage) came to 1 h. In addition, the “Oral absorption and passage of the blood-brain barrier” value in [4] (400 mg/kg by gavage, mice) is “can be orally absorbed and traverse the blood-brain barrier”. Further, the “HT22 cells that lived after glutamate” value with HT22 cells is “over 90%”.
Turning to `C(=C\c1cc(/C=C/c2ccccc2)n(-c2ccccc2)n1)/c1ccccc1` [Compound 22-020], the “Neuroprotective activity at 1 μM” value in data set [1] was 0.
In the case of `COc1ccc(/C=C/c2cc(/C=C/c3ccc(OC)cc3)n(-c3ccccc3)n2)cc1` [Compound 22-022], the “Neuroprotective activity at 1 μM” value in data set [1] was determined as 0.
Still for that read-out and setting: to `COc1ccc(/C=C/c2cc(/C=C/c3ccc(OC)c(OC)c3)n(-c3ccccc3)n2)cc1OC` [Compound 22-026] belongs 0.
